# From patent publication US6964949B2, “Pharmaceutical compositions for promoting the growth of gram-positive bacilli and increasing the acidity in the vagina and the use thereof” (Shanghai Jiao Da Onlly Co., Ltd., priority 2000, dated 2005)
# Legend:
# [1] = tested on: L. acidophilus, C. albicans, C. tropicalis; assay: Fluconazole in Sucrose Broth, Group 1 co-culture: turbidity and Gram-stained smear; format: cell-based; design: key to Turbidity, Group 1: ++: The cultural fluid was heavily turbid; +: The cultural fluid was turbid; +/−: The turbidity of the cultural fluid was not affirmative; key to Microbes (Gram-stained smear), Group 1: Lb: Lactobacilli; Candida; conditions: 18 hours, 37° C., candle jar
# Description: (§1) • 1. Materials: • Sucrose Broth: 10.0% sucrose, 2.0% yeast extract, K2HPO40.5%, MgSO40.05%, MnSO40.1%, pH adjusted to 6.2, sterilized. • Anti-fungi drug: Fluconazole • Clinically isolated Lactobacillus strains: Lactobacillus acidophilus, Lactobacillus crispatus, and Lactobacillus jensenii. Three lactobacillus suspensions were prepared separately from each of these three lactobacillus strains. • Clinically isolated Candida strains: Candida albicans and Candida tropicalis. Two Candidal suspensions were prepared separately from each of these two candida strains. • 2.
# (§2) • There were six tubes in each group and each tube contained 2ml Sucrose Broth and different concentration of Fluconazole, as shown in Table 1. • The turbidity values of three lactobacillus suspensions and two Candidal suspensions were tested by Turbidimeter and adjusted to 0.3. 50 ul of each prepared lactobacillus suspension and Candidal suspension were separately added into tubes according to Table 1. • All of these experimental tubes were put into candle jars as soon as the lactobacillus suspensions and candidal suspensions were added, and then incubated at 37° C. for 18 hours. • After 18 hours' incubation the turbidity of each tube was examined and Gram-stained smear of cultural fluid of corresponding tube was observed under microscopy to check microbes. Results
# [2] = tested on: L. crispatus, C. albicans, C. tropicalis; assay: Fluconazole in Sucrose Broth, Group 2 co-culture: turbidity and Gram-stained smear; format: cell-based; design: key to Turbidity, Group 2: ++: The cultural fluid was heavily turbid; +: The cultural fluid was turbid; +/−: The turbidity of the cultural fluid was not affirmative; key to Microbes (Gram-stained smear), Group 2: Lb: Lactobacilli; Candida; conditions: 18 hours, 37° C., candle jar
# Description: as §1, §2
# [3] = tested on: L. jensenii, C. albicans, C. tropicalis; assay: Fluconazole in Sucrose Broth, Group 3 co-culture: turbidity and Gram-stained smear; format: cell-based, Lactobacillus jensenii, Candida albicans, Candida tropicalis; design: key to Turbidity, Group 3: ++: The cultural fluid was heavily turbid; +: The cultural fluid was turbid; +/−: The turbidity of the cultural fluid was not affirmative; key to Microbes (Gram-stained smear), Group 3: Lb: Lactobacilli; Candida; conditions: 18 hours, 37° C., candle jar
# Description: as §1, §2
# [4] = tested on: C. albicans, C. tropicalis; assay: Fluconazole in Sucrose Broth, Group 4 (Candidal group): turbidity and Gram-stained smear; format: cell-based, Candida albicans, Candida tropicalis; design: key to Turbidity, Group 4: ++: The cultural fluid was heavily turbid; +: The cultural fluid was turbid; +/−: The turbidity of the cultural fluid was not affirmative; conditions: 18 hours; for Turbidity, Group 4: 37° C., candle jar
# Description: as §1, §2
# [5] = tested on: three Lactobacillus strains; assay: Fluconazole in Sucrose Broth: growth of the three Lactobacillus strains (Groups 1-3); format: cell-based; conditions: 400 ug/ml of Fluconazole, 18 hours
# Description: as §1, §2
# [6] = tested on: L. acidophilus, C. albicans, C. tropicalis; assay: Terconazole in Maltose Broth, Group 1 co-culture: turbidity and Gram-stained smear; format: cell-based; design: key to Turbidity, Group 1: ++: The cultural fluid was heavily turbid; +: The cultural fluid was turbid; +/−: The turbidity of the cultural fluid was not affirmative; key to Microbes (Gram-stained smear), Group 1: Lb: Lactobacilli; Candida; conditions: 18 hours, 37° C., candle jar
# Description: (§3) • 1. Materials: • Maltose Broth: 10.0% maltose, 2.0% yeast extract, K2HPO4 0.5%, MgSO4 0.05%, MnSO40.1%, pH adjusted to 6.2, sterilized. • Anti-fungi drug: Terconazole • Clinically isolated Lactobacillus strains: Lactobacillus acidophilus, Lactobacillus crispatus, and Lactobacillus jensenii. Three lactobacillus suspensions were prepared separately from each of these three lactobacillus strains.
# (§4) Clinically isolated Candida strains: Candida albicans and Candida tropicalis. Two Candidal suspensions were prepared separately from each of these two candida strains. • 2.
# as §2, with “2 ml Maltose” for “2ml Sucrose”, “Terconazole,” for “Fluconazole,”
# [7] = tested on: L. crispatus, C. albicans, C. tropicalis; assay: Terconazole in Maltose Broth, Group 2 co-culture: turbidity and Gram-stained smear; format: cell-based; design: key to Turbidity, Group 2: ++: The cultural fluid was heavily turbid; +: The cultural fluid was turbid; +/−: The turbidity of the cultural fluid was not affirmative; key to Microbes (Gram-stained smear), Group 2: Lb: Lactobacilli; Candida; conditions: 18 hours, 37° C., candle jar
# Description: as §3, §4
# as §2, with “2 ml Maltose” for “2ml Sucrose”, “Terconazole,” for “Fluconazole,”
# [8] = tested on: L. jensenii, C. albicans, C. tropicalis; assay: Terconazole in Maltose Broth, Group 3 co-culture: turbidity and Gram-stained smear; format: cell-based, Lactobacillus jensenii, Candida albicans, Candida tropicalis; design: key to Turbidity, Group 3: ++: The cultural fluid was heavily turbid; +: The cultural fluid was turbid; +/−: The turbidity of the cultural fluid was not affirmative; key to Microbes (Gram-stained smear), Group 3: Lb: Lactobacilli; Candida; conditions: 18 hours, 37° C., candle jar
# Description: as §3, §4
# as §2, with “2 ml Maltose” for “2ml Sucrose”, “Terconazole,” for “Fluconazole,”
# [9] = tested on: C. albicans, C. tropicalis; assay: Terconazole in Maltose Broth, Group 4 (Candidal group): turbidity and Gram-stained smear; format: cell-based, Candida albicans, Candida tropicalis; design: key to Turbidity, Group 4: ++: The cultural fluid was heavily turbid; +: The cultural fluid was turbid; +/−: The turbidity of the cultural fluid was not affirmative; conditions: 18 hours; for Turbidity, Group 4: 37° C., candle jar
# Description: as §3, §4
# as §2, with “2 ml Maltose” for “2ml Sucrose”, “Terconazole,” for “Fluconazole,”
# [10] = tested on: three Lactobacillus strains; assay: Terconazole in Maltose Broth: growth of the three Lactobacillus strains (Groups 1-3); format: cell-based; conditions: 400 ug/ml of Terconazole, 18 hours
# Description: as §3, §4
# as §2, with “2 ml Maltose” for “2ml Sucrose”, “Terconazole,” for “Fluconazole,”
compound,measurement,setting,value
OC(Cn1cncn1)(Cn1cncn1)c1ccc(F)cc1F [Fluconazole],"Microbes (Gram-stained smear), Group 1",[1]; Fluconazole 25 ug/ml,Lb
same,"Turbidity, Group 1",[1]; Fluconazole 25 ug/ml,++
same,"Microbes (Gram-stained smear), Group 1",[1]; Fluconazole 50 ug/ml,Lb
same,"Turbidity, Group 1",[1]; Fluconazole 50 ug/ml,++
same,"Microbes (Gram-stained smear), Group 1",[1]; Fluconazole 100 ug/ml,Lb
same,"Turbidity, Group 1",[1]; Fluconazole 100 ug/ml,++
same,"Microbes (Gram-stained smear), Group 1",[1]; Fluconazole 200 ug/ml,Lb
same,"Turbidity, Group 1",[1]; Fluconazole 200 ug/ml,++
same,"Microbes (Gram-stained smear), Group 1",[1]; Fluconazole 400 ug/ml,Lb
same,"Turbidity, Group 1",[1]; Fluconazole 400 ug/ml,++
same,"Microbes (Gram-stained smear), Group 2",[2]; Fluconazole 25 ug/ml,Lb
same,"Turbidity, Group 2",[2]; Fluconazole 25 ug/ml,++
same,"Microbes (Gram-stained smear), Group 2",[2]; Fluconazole 50 ug/ml,Lb
same,"Turbidity, Group 2",[2]; Fluconazole 50 ug/ml,++
same,"Microbes (Gram-stained smear), Group 2",[2]; Fluconazole 100 ug/ml,Lb
same,"Turbidity, Group 2",[2]; Fluconazole 100 ug/ml,++
same,"Microbes (Gram-stained smear), Group 2",[2]; Fluconazole 200 ug/ml,Lb
same,"Turbidity, Group 2",[2]; Fluconazole 200 ug/ml,++
same,"Microbes (Gram-stained smear), Group 2",[2]; Fluconazole 400 ug/ml,Lb
same,"Turbidity, Group 2",[2]; Fluconazole 400 ug/ml,++
same,"Microbes (Gram-stained smear), Group 3",[3]; Fluconazole 25 ug/ml,Lb
same,"Turbidity, Group 3",[3]; Fluconazole 25 ug/ml,++
same,"Microbes (Gram-stained smear), Group 3",[3]; Fluconazole 50 ug/ml,Lb
same,"Turbidity, Group 3",[3]; Fluconazole 50 ug/ml,++
same,"Microbes (Gram-stained smear), Group 3",[3]; Fluconazole 100 ug/ml,Lb
same,"Turbidity, Group 3",[3]; Fluconazole 100 ug/ml,++
same,"Microbes (Gram-stained smear), Group 3",[3]; Fluconazole 200 ug/ml,Lb
same,"Turbidity, Group 3",[3]; Fluconazole 200 ug/ml,++
same,"Microbes (Gram-stained smear), Group 3",[3]; Fluconazole 400 ug/ml,Lb
same,"Turbidity, Group 3",[3]; Fluconazole 400 ug/ml,++
same,growth of the two Candidal strains,[4]; 25 ug/ml or greater concentration of Fluconazole,inhibited the growth
same,"Turbidity, Group 4",[4]; Fluconazole 25 ug/ml,+/−
same,"Turbidity, Group 4",[4]; Fluconazole 50 ug/ml,+/−
same,"Turbidity, Group 4",[4]; Fluconazole 100 ug/ml,+/−
same,"Turbidity, Group 4",[4]; Fluconazole 200 ug/ml,+/−
same,"Turbidity, Group 4",[4]; Fluconazole 400 ug/ml,+/−
same,growth of three Lactobacillus strains,[5],didn't inhibit the growth
CC(C)N1CCN(c2ccc(OCC3COC(Cn4cncn4)(c4ccc(Cl)cc4Cl)O3)cc2)CC1 (centres unmarked) [Terconazole],"Microbes (Gram-stained smear), Group 1",[6]; Terconazole 25 ug/ml,Lb
same,"Turbidity, Group 1",[6]; Terconazole 25 ug/ml,++
same,"Microbes (Gram-stained smear), Group 1",[6]; Terconazole 50 ug/ml,Lb
same,"Turbidity, Group 1",[6]; Terconazole 50 ug/ml,++
same,"Microbes (Gram-stained smear), Group 1",[6]; Terconazole 100 ug/ml,Lb
same,"Turbidity, Group 1",[6]; Terconazole 100 ug/ml,++
same,"Microbes (Gram-stained smear), Group 1",[6]; Terconazole 200 ug/ml,Lb
same,"Turbidity, Group 1",[6]; Terconazole 200 ug/ml,++
same,"Microbes (Gram-stained smear), Group 1",[6]; Terconazole 400 ug/ml,Lb
same,"Turbidity, Group 1",[6]; Terconazole 400 ug/ml,++
same,"Microbes (Gram-stained smear), Group 2",[7]; Terconazole 25 ug/ml,Lb
same,"Turbidity, Group 2",[7]; Terconazole 25 ug/ml,++
same,"Microbes (Gram-stained smear), Group 2",[7]; Terconazole 50 ug/ml,Lb
same,"Turbidity, Group 2",[7]; Terconazole 50 ug/ml,++
same,"Microbes (Gram-stained smear), Group 2",[7]; Terconazole 100 ug/ml,Lb
same,"Turbidity, Group 2",[7]; Terconazole 100 ug/ml,++
same,"Microbes (Gram-stained smear), Group 2",[7]; Terconazole 200 ug/ml,Lb
same,"Turbidity, Group 2",[7]; Terconazole 200 ug/ml,++
same,"Microbes (Gram-stained smear), Group 2",[7]; Terconazole 400 ug/ml,Lb
same,"Turbidity, Group 2",[7]; Terconazole 400 ug/ml,++
same,"Microbes (Gram-stained smear), Group 3",[8]; Terconazole 25 ug/ml,Lb
same,"Turbidity, Group 3",[8]; Terconazole 25 ug/ml,++
same,"Microbes (Gram-stained smear), Group 3",[8]; Terconazole 50 ug/ml,Lb
same,"Turbidity, Group 3",[8]; Terconazole 50 ug/ml,++
same,"Microbes (Gram-stained smear), Group 3",[8]; Terconazole 100 ug/ml,Lb
same,"Turbidity, Group 3",[8]; Terconazole 100 ug/ml,++
same,"Microbes (Gram-stained smear), Group 3",[8]; Terconazole 200 ug/ml,Lb
same,"Turbidity, Group 3",[8]; Terconazole 200 ug/ml,++
same,"Microbes (Gram-stained smear), Group 3",[8]; Terconazole 400 ug/ml,Lb
same,"Turbidity, Group 3",[8]; Terconazole 400 ug/ml,++
same,growth of the two Candidal strains,[9]; 25 ug/ml or greater concentration of Terconazole,inhibited the growth
same,"Turbidity, Group 4",[9]; Terconazole 25 ug/ml,+/−
same,"Turbidity, Group 4",[9]; Terconazole 50 ug/ml,+/−
same,"Turbidity, Group 4",[9]; Terconazole 100 ug/ml,+/−
same,"Turbidity, Group 4",[9]; Terconazole 200 ug/ml,+/−
same,"Turbidity, Group 4",[9]; Terconazole 400 ug/ml,+/−
same,growth of three Lactobacillus strains,[10],didn't inhibit the growth
